Results reported in patent US11542235B2, “Herbicidal 3-azaspiro[5.5] undecane-8, 10-dione compounds” (SYNGENTA PARTICIPATIONS AG, priority 2018, dated 2023).

How the values were obtained:
Format in all cases: in vivo
Avena fatua (AVEFA) = assay: Glasshouse herbicidal test, pre- and post-emergence, Avena fatua; settings: 250 g/h, evaluated after 13 days, five point scale; for percentage damage caused to the plant, AVEFA POST: post-emergence; for percentage damage caused to the plant, AVEFA PRE: pre-emergence
Method: (§1) Seeds of a variety of test species are sown in standard soil in pots (Lolium perenne (LOLPE), Setaria faberi (SETFA), Alopecurus myosuroides (ALOMY), Echinochloa crus-galli (ECHCG), Avena fatua (AVEFA)). After cultivation for one day (pre-emergence) or after 8 days cultivation (post-emergence) under controlled conditions in a glasshouse (at 24/16° C., day/night; 14 hours light; 65% humidity), the plants are sprayed with an aqueous spray solution derived from the formulation of the technical active ingredient in acetone/water (50:50) solution containing 0.5% Tween 20 (polyoxyethelyene sorbitan monolaurate, CAS RN 9005-64-5). Compounds are applied at […]. The test plants are then grown in a glasshouse under controlled conditions in a glasshouse (at 24/16° C., day/night; 14 hours light; 65% humidity) and watered twice daily. After 13 days for pre and post-emergence, the test is evaluated for the percentage damage caused to the plant. The biological activities are shown in the following table on a five point scale (5=80-100%; 4=60-79%; 3=40-59%; 2=20-39%; 1=0-19%).

[1] = system: Alopecurus myosuroides (ALOMY); assay: Glasshouse herbicidal test, pre- and post-emergence, Alopecurus myosuroides; settings: 250 g/h, evaluated after 13 days, five point scale; for percentage damage caused to the plant, ALOMY POST: post-emergence; for percentage damage caused to the plant, ALOMY PRE: pre-emergence
Method: as §1

Lolium perenne (LOLPE) = assay: Glasshouse herbicidal test, pre- and post-emergence, Lolium perenne; settings: 250 g/h, evaluated after 13 days, five point scale; for percentage damage caused to the plant, LOLPE POST: post-emergence; for percentage damage caused to the plant, LOLPE PRE: pre-emergence
Method: as §1

Setaria faberi (SETFA) = assay: Glasshouse herbicidal test, pre- and post-emergence, Setaria faberi; settings: 250 g/h, evaluated after 13 days, five point scale; for percentage damage caused to the plant, SETFA POST: post-emergence; for percentage damage caused to the plant, SETFA PRE: pre-emergence
Method: as §1

[2] = system: Echinochloa crus-galli (ECHCG); assay: Glasshouse herbicidal test, pre- and post-emergence, Echinochloa crus-galli; settings: 250 g/h, evaluated after 13 days, five point scale; for percentage damage caused to the plant, ECHCG PRE: pre-emergence; for percentage damage caused to the plant, ECHCG POST: post-emergence
Method: as §1

CC#Cc1cc(C)c(C2=C(OC(=O)Oc3ccccc3)CC3(CCN(C(C)=O)CC3)CC2=O)c(C)c1 [Compound P9]
5 (5=80-100%): percentage damage caused to the plant, AVEFA POST (Avena fatua (AVEFA)) | percentage damage caused to the plant, AVEFA PRE (Avena fatua (AVEFA)) | percentage damage caused to the plant, ALOMY POST [1] | percentage damage caused to the plant, ALOMY PRE [1] | percentage damage caused to the plant, LOLPE POST (Lolium perenne (LOLPE)) | percentage damage caused to the plant, LOLPE PRE (Lolium perenne (LOLPE)) | percentage damage caused to the plant, SETFA POST (Setaria faberi (SETFA)) | percentage damage caused to the plant, SETFA PRE (Setaria faberi (SETFA)) | percentage damage caused to the plant, ECHCG PRE [2]

C#CCOC1=C(c2c(C)cc(C#CC)cc2C)C(=O)CC2(CCN(C(C)=O)CC2)C1 [Compound P17]
5 (5=80-100%): percentage damage caused to the plant, AVEFA POST (Avena fatua (AVEFA)) | percentage damage caused to the plant, AVEFA PRE (Avena fatua (AVEFA)) | percentage damage caused to the plant, ALOMY POST [1] | percentage damage caused to the plant, ALOMY PRE [1] | percentage damage caused to the plant, LOLPE POST (Lolium perenne (LOLPE)) | percentage damage caused to the plant, LOLPE PRE (Lolium perenne (LOLPE)) | percentage damage caused to the plant, SETFA POST (Setaria faberi (SETFA)) | percentage damage caused to the plant, SETFA PRE (Setaria faberi (SETFA)) | percentage damage caused to the plant, ECHCG PRE [2]

CC#Cc1cc(C)c(C2=C(OC(=O)OC)CC3(CCN(C(C)=O)CC3)CC2=O)c(C)c1 [Compound P5]
5 (5=80-100%): percentage damage caused to the plant, AVEFA POST (Avena fatua (AVEFA)) | percentage damage caused to the plant, AVEFA PRE (Avena fatua (AVEFA)) | percentage damage caused to the plant, ALOMY POST [1] | percentage damage caused to the plant, ALOMY PRE [1] | percentage damage caused to the plant, LOLPE POST (Lolium perenne (LOLPE)) | percentage damage caused to the plant, LOLPE PRE (Lolium perenne (LOLPE)) | percentage damage caused to the plant, SETFA POST (Setaria faberi (SETFA)) | percentage damage caused to the plant, SETFA PRE (Setaria faberi (SETFA)) | percentage damage caused to the plant, ECHCG POST [2] | percentage damage caused to the plant, ECHCG PRE [2]

CC#Cc1cc(C)c(C2=C(OC(=O)OC)CC3(CCN(C(C)=O)CC3)CC2=O)c(OC)c1 [Compound P18]
5 (5=80-100%): percentage damage caused to the plant, AVEFA POST (Avena fatua (AVEFA)) | percentage damage caused to the plant, AVEFA PRE (Avena fatua (AVEFA)) | percentage damage caused to the plant, ALOMY POST [1] | percentage damage caused to the plant, ALOMY PRE [1] | percentage damage caused to the plant, LOLPE POST (Lolium perenne (LOLPE)) | percentage damage caused to the plant, LOLPE PRE (Lolium perenne (LOLPE)) | percentage damage caused to the plant, SETFA POST (Setaria faberi (SETFA)) | percentage damage caused to the plant, SETFA PRE (Setaria faberi (SETFA)) | percentage damage caused to the plant, ECHCG PRE [2]

CC#Cc1cc(C)c(C2C(=O)CC3(CCN(CC(F)(F)F)CC3)CC2=O)c(C)c1 [Compound A7]
5 (5=80-100%): percentage damage caused to the plant, AVEFA POST (Avena fatua (AVEFA)) | percentage damage caused to the plant, AVEFA PRE (Avena fatua (AVEFA)) | percentage damage caused to the plant, ALOMY POST [1] | percentage damage caused to the plant, ALOMY PRE [1] | percentage damage caused to the plant, LOLPE POST (Lolium perenne (LOLPE)) | percentage damage caused to the plant, LOLPE PRE (Lolium perenne (LOLPE)) | percentage damage caused to the plant, SETFA POST (Setaria faberi (SETFA)) | percentage damage caused to the plant, SETFA PRE (Setaria faberi (SETFA)) | percentage damage caused to the plant, ECHCG POST [2] | percentage damage caused to the plant, ECHCG PRE [2]

CC#Cc1cc(C)c(C2=C(OC(C)=O)CC3(CCN(C(C)=O)CC3)CC2=O)c(C)c1 [Compound P4, [3-acetyl-9-(2,6-dimethyl-4-prop-1-ynyl-phenyl)-10-oxo-3-azaspiro[5.5]undec-8-en-8-yl] acetate]
5 (5=80-100%): percentage damage caused to the plant, AVEFA POST (Avena fatua (AVEFA)) | percentage damage caused to the plant, AVEFA PRE (Avena fatua (AVEFA)) | percentage damage caused to the plant, ALOMY POST [1] | percentage damage caused to the plant, ALOMY PRE [1] | percentage damage caused to the plant, LOLPE POST (Lolium perenne (LOLPE)) | percentage damage caused to the plant, LOLPE PRE (Lolium perenne (LOLPE)) | percentage damage caused to the plant, SETFA PRE (Setaria faberi (SETFA)) | percentage damage caused to the plant, ECHCG POST [2] | percentage damage caused to the plant, ECHCG PRE [2]

CC#Cc1cc(OC)c(C2C(=O)CC3(CCN(C(C)=O)CC3)CC2=O)c(OC)c1 [Compound A14]
5 (5=80-100%): percentage damage caused to the plant, AVEFA POST (Avena fatua (AVEFA)) | percentage damage caused to the plant, AVEFA PRE (Avena fatua (AVEFA)) | percentage damage caused to the plant, ALOMY POST [1] | percentage damage caused to the plant, ALOMY PRE [1] | percentage damage caused to the plant, LOLPE POST (Lolium perenne (LOLPE)) | percentage damage caused to the plant, LOLPE PRE (Lolium perenne (LOLPE)) | percentage damage caused to the plant, SETFA POST (Setaria faberi (SETFA)) | percentage damage caused to the plant, SETFA PRE (Setaria faberi (SETFA)) | percentage damage caused to the plant, ECHCG POST [2] | percentage damage caused to the plant, ECHCG PRE [2]
